Laboratory results as given in article PMC8445441, “Elucidating the mechanism by which synthetic helper peptides sensitize Pseudomonas aeruginosa to multiple antibiotics” (PLoS Pathogens, 2021).
Like-named read-outs stand apart in the source and are kept apart here.

How the values were obtained:
P. aeruginosa AUMC-Pa-6 = assay: microbe, parasite or virus in culture; conditions: strain AUMC-Pa-6
Procedure, shortened: (§1)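 Two-fold serial dilutions in MHB received an equal volume of bacteria (suspension about 1 × 10^6 CFU/mL). Plates were held 18 h at 37 °C, then read visually for growth. Triplicate, CLSI-based.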

P. aeruginosa AUMC-Pa-5 = assay: microbe, parasite or virus in culture; conditions: strain AUMC-Pa-5
Procedure, shortened: as §1

P. aeruginosa PAO1 = assay: microbe, parasite or virus in culture; conditions: PAO1
Procedure, shortened: as §1

P. aeruginosa AUMC-Pa-3 = assay: microbe, parasite or virus in culture; conditions: strain AUMC-Pa-3
Procedure, shortened: as §1

P. aeruginosa AUMC-Pa-4 = assay: microbe, parasite or virus in culture; conditions: strain AUMC-Pa-4
Procedure, shortened: as §1

P. aeruginosa ATCC27853 = assay: microbe, parasite or virus in culture; set-up: MICa: MIC of the antibiotic / MICac: MIC of the antibiotic in the combination: unit not given beside the values; conditions: strain ATCC27853
Procedure: (§2) The MIC tests were performed in triplicate using broth microdilution in accordance with Clinical and Laboratory Standards Institute (CLSI) recommendations (http://iacld.ir/DL/public/CLSI-2018-M100-S28.pdf). Briefly, drugs were two-fold diluted in MHB and mixed with an equal volume of bacterial suspensions containing approximately 1 × 10^6 CFU/mL in 96-well microliter plate. After 18 h incubation at 37 °C, the MIC values were defined as the lowest concentrations of antibiotics with no visible growth of bacteria. […] Otherwise, 1/4 MIC of the peptide was used in the combination. […] If needed, membrane compounds PG, PE, PC, CL or LPS, or membrane stabilizers MgCl2 or CaCl2, or efflux pumps inhibitor PAβN were added to the broth medium to clarify the effect of other substances on the synergy between peptide and antibiotics. All the tests were performed in triplicate.
(§3) The fractional inhibitory concentration (FIC) indices were calculated using the previously described formula FICI = FICa + FICb = MICac/MICa + MICbc/MICb. The FICI was interpreted according to EUCAST [65] as follows: synergistic, FICI≤0.5; additive, 0.5<FICI≤1; indifferent, 1<FICI<2; antagonistic, FICI ≥2. For the FICI calculations, twice the highest concentration tested was used in the cases where the MIC was not reached.

P. aeruginosa NR-31041 = assay: microbe, parasite or virus in culture; set-up: MICa: MIC of the antibiotic / MICac: MIC of the antibiotic in the combination: unit not given beside the values; conditions: strain NR-31041
Procedure: as §2, §3

P. aeruginosa NR-31040 = assay: microbe, parasite or virus in culture; set-up: MICa: MIC of the antibiotic / MICac: MIC of the antibiotic in the combination: unit not given beside the values
Procedure: as §2, §3

P. aeruginosa PAK = assay: microbe, parasite or virus in culture; set-up: MICa: MIC of the antibiotic / MICac: MIC of the antibiotic in the combination: unit not given beside the values; conditions: strain PAK
Procedure: as §2, §3

P. aeruginosa PA14 = assay: microbe, parasite or virus in culture; set-up: MICa: MIC of the antibiotic / MICac: MIC of the antibiotic in the combination: unit not given beside the values; conditions: strain PA14
Procedure: as §2, §3

[1] = system: clinical P. aeruginosa isolates; assay: microbe, parasite or virus in culture; conditions: Pseudomonas aeruginosa, 18 h, antibiotic alone
Procedure, shortened: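 Broth microdilution per CLSI in MHB, two-fold drug dilutions mixed with an equal volume of bacteria at about 1 × 10^6 CFU/mL. After 18 h at 37 °C, MIC taken as the lowest concentration with no visible growth; run in triplicate.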

P. aeruginosa HM-214 = conditions: strain HM-214; antibiotic + D-11 (MICb/MICbc 128/4)
Procedure: as §2, §3

P. aeruginosa AUMC-Pa-1 = conditions: strain AUMC-Pa-1; antibiotic + D-11 (MICb/MICbc 128/4)
Procedure: as §2, §3

P. aeruginosa AUMC-Pa-2 = conditions: strain AUMC-Pa-2; antibiotic + D-11 (MICb/MICbc 64/4)
Procedure: as §2, §3

[2] = antibiotic + D-11 (MICb/MICbc 64/4)
[3] = antibiotic alone, unit not given
[4] = with D-11 at MICbc 4, unit not given
[5] = antibiotic + D-11 (MICb/MICbc 128/4)

MICa: MIC of the antibiotic (P. aeruginosa AUMC-Pa-6; [3]): 8
MICac: MIC of the antibiotic in the combination (P. aeruginosa AUMC-Pa-6; [4]): 2
MICa: MIC of the antibiotic (P. aeruginosa AUMC-Pa-5; [3]): 8/8
MICac: MIC of the antibiotic in the combination (P. aeruginosa AUMC-Pa-5; [4]): 8/8
MIC (P. aeruginosa PAO1; Pseudomonas aeruginosa, PAO1, 18 h, read-out: MICa: the MIC of antibiotics, S3 Table, antibiotic alone): 4 µM
MICac: the MIC for the antibiotic in the combination (P. aeruginosa PAO1; S3 Table, with 2 μM D-11): 0.125 µM
MICac: the MIC for the antibiotic in the combination (P. aeruginosa PAO1; S3 Table, with 4 μM D-11): 0.0625 µM
MICa: MIC of the antibiotic (P. aeruginosa AUMC-Pa-3; [3]): 8
MICac: MIC of the antibiotic in the combination (P. aeruginosa AUMC-Pa-3; [4]): 1
MICa: MIC of the antibiotic (P. aeruginosa AUMC-Pa-4; [3]): 16
MICac: MIC of the antibiotic in the combination (P. aeruginosa AUMC-Pa-4; [4]): 2
MICa: MIC of the antibiotic (P. aeruginosa ATCC27853; [3]): 8
MICac: MIC of the antibiotic in the combination (P. aeruginosa ATCC27853; [4]): 1
MICa: MIC of the antibiotic (P. aeruginosa NR-31041; [3]): 8
MICac: MIC of the antibiotic in the combination (P. aeruginosa NR-31041; [4]): 1
MIC (P. aeruginosa NR-31040; Pseudomonas aeruginosa, NR31040, 18 h, read-out: MICa: MIC of the antibiotic): 8 µM
MICac: MIC of the antibiotic in the combination (P. aeruginosa NR-31040; strain NR-31040, with D-11 at MICbc 4, unit not given): 0.5
MICa: MIC of the antibiotic (P. aeruginosa PAK; [3]): 8
MICac: MIC of the antibiotic in the combination (P. aeruginosa PAK; [4]): 1
MICa: MIC of the antibiotic (P. aeruginosa PA14; [3]): 8
MICac: MIC of the antibiotic in the combination (P. aeruginosa PA14; [4]): 1
MIC ([1]; read-out: Antibiotic sensibility (MIC) of clinical P. aeruginosa isolate AUMC-Pa-1, strain AUMC-Pa-1): 16 µM
MIC ([1]; read-out: Antibiotic sensibility (MIC) of clinical P. aeruginosa isolate AUMC-Pa-2, strain AUMC-Pa-2): 8 µM
MIC ([1]; read-out: Antibiotic sensibility (MIC) of clinical P. aeruginosa isolate AUMC-Pa-3, strain AUMC-Pa-3): 8 µM
MIC ([1]; read-out: Antibiotic sensibility (MIC) of clinical P. aeruginosa isolate AUMC-Pa-4, strain AUMC-Pa-4): 16 µM
MIC ([1]; read-out: Antibiotic sensibility (MIC) of clinical P. aeruginosa isolate AUMC-Pa-5, strain AUMC-Pa-5): 8 µM
MIC ([1]; read-out: Antibiotic sensibility (MIC) of clinical P. aeruginosa isolate AUMC-Pa-6, strain AUMC-Pa-6): 8 µM
MIC ([1]; read-out: Antibiotic sensibility (MIC) of clinical P. aeruginosa isolate HM-214, strain HM-214): 8 µM
MIC ([1]; read-out: Antibiotic sensibility (MIC) of clinical P. aeruginosa isolate NR-31040, strain NR-31040): 8 µM
MIC ([1]; read-out: Antibiotic sensibility (MIC) of clinical P. aeruginosa isolate NR-31041, strain NR-31041): 8 µM
Structure (SMILES): CN(C)[C@@H]1C(O)=C(C(N)=O)C(=O)[C@@]2(O)C(O)=C3C(=O)c4c(O)c(NC(=O)CN5CCCC5)cc(F)c4C[C@H]3C[C@@H]12 [Eravacycline]
FICI (P. aeruginosa AUMC-Pa-6; [2]): 0.313
FICI (P. aeruginosa AUMC-Pa-5; [2]): 1.063
FICI (P. aeruginosa PAO1; S3 Table, antibiotic + 2 μM D-11): 0.094
FICI (P. aeruginosa AUMC-Pa-3; [5]): 0.156
FICI (P. aeruginosa AUMC-Pa-4; [5]): 0.156
FICI (P. aeruginosa ATCC27853; antibiotic + D-11 (MICb/MICbc 32/4)): 0.250
FICI (P. aeruginosa NR-31041; [2]): 0.188
FICI (P. aeruginosa NR-31040; strain NR-31040, antibiotic + D-11 (MICb/MICbc 128/4)): 0.094
FICI (P. aeruginosa PAK; [2]): 0.188
FICI (P. aeruginosa PA14; [5]): 0.156
FICI (P. aeruginosa HM-214): 0.281
FICI (P. aeruginosa AUMC-Pa-1): 0.156
FICI (P. aeruginosa AUMC-Pa-2): 0.313
